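Cells were grown in 96-well plates and exposed to each compound for 48 hours at five concentrations; endpoints were interpolated linearly between bracketing concentrations, or set to the highest concentration if not reached. The concentration for 50% growth inhibition is given as GI50. TGI is the concentration that stops growth completely.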
What was measured:
Experiment in all cases: DTP human tumour cell line panel, 48 h
786-0 renal = tested on: 786-0 renal
A498 renal = tested on: A498 renal
A549 NSCLC = tested on: A549 NSCLC
ACHN renal = tested on: ACHN renal
BT-549 breast = tested on: BT-549 breast
CAKI-1 renal = tested on: CAKI-1 renal
COLO 205 colon = tested on: COLO 205 colon
DU-145 prostate = tested on: DU-145 prostate
EKVX NSCLC = tested on: EKVX NSCLC
HCC-2998 colon = tested on: HCC-2998 colon
HCT-116 colon = tested on: HCT-116 colon
HCT-15 colon = tested on: HCT-15 colon
HL-60(TB) leukemia = tested on: HL-60(TB) leukemia
HOP-62 NSCLC = tested on: HOP-62 NSCLC
HOP-92 NSCLC = tested on: HOP-92 NSCLC
HS 578T breast = tested on: HS 578T breast
HT29 colon = tested on: HT29 colon
IGROV1 ovarian = tested on: IGROV1 ovarian
K-562 leukemia = tested on: K-562 leukemia
KM12 colon = tested on: KM12 colon
LOX IMVI melanoma = tested on: LOX IMVI melanoma
M14 melanoma = tested on: M14 melanoma
MALME-3M melanoma = tested on: MALME-3M melanoma
MCF7 breast = tested on: MCF7 breast
MDA-MB-231 breast = tested on: MDA-MB-231 breast
MDA-MB-435 = tested on: MDA-MB-435
MDA-MB-468 breast = tested on: MDA-MB-468 breast
MOLT-4 leukemia = tested on: MOLT-4 leukemia
NCI-H226 lung = tested on: NCI-H226 lung

Structure (SMILES): N#CC1=C(c2ccco2)Nc2c(c(-c3ccccc3)nn2-c2ccccc2)C12C(=O)Nc1ccc(Br)cc12 (configuration not stated)
- GI50 (786-0 renal): 21.3 µM
- TGI (786-0 renal): 51.8 µM
- GI50 (A498 renal): 16.8 µM
- TGI (A498 renal): 32.1 µM
- GI50 (A549 NSCLC): 17.4 µM
- TGI (A549 NSCLC): 33 µM
- GI50 (ACHN renal): 18.7 µM
- TGI (ACHN renal): 35.7 µM
- GI50 (BT-549 breast): 14.6 µM
- TGI (BT-549 breast): 29.7 µM
- GI50 (CAKI-1 renal): 19.3 µM
- TGI (CAKI-1 renal): 43.2 µM
- GI50 (COLO 205 colon): 25.4 µM
- TGI (COLO 205 colon): 69.1 µM
- GI50 (DU-145 prostate): 20.5 µM
- TGI (DU-145 prostate): 40.2 µM
- GI50 (EKVX NSCLC): 20.9 µM
- TGI (EKVX NSCLC): 54.6 µM
- GI50 (HCC-2998 colon): 36.5 µM
- TGI (HCC-2998 colon): > 100 µM
- GI50 (HCT-116 colon): 18.6 µM
- TGI (HCT-116 colon): 36.3 µM
- GI50 (HCT-15 colon): 18.1 µM
- TGI (HCT-15 colon): 36.9 µM
- GI50 (HL-60(TB) leukemia): 53.2 µM
- TGI (HL-60(TB) leukemia): > 100 µM
- GI50 (HOP-62 NSCLC): 18.4 µM
- TGI (HOP-62 NSCLC): 37.8 µM
- GI50 (HOP-92 NSCLC): 16.8 µM
- TGI (HOP-92 NSCLC): 33.2 µM
- GI50 (HS 578T breast): 19.3 µM
- TGI (HS 578T breast): 47.8 µM
- GI50 (HT29 colon): 18.3 µM
- TGI (HT29 colon): 35.2 µM
- GI50 (IGROV1 ovarian): 18.5 µM
- TGI (IGROV1 ovarian): 34.6 µM
- GI50 (K-562 leukemia): 38 µM
- TGI (K-562 leukemia): > 100 µM
- GI50 (KM12 colon): 33.2 µM
- TGI (KM12 colon): > 100 µM
- GI50 (LOX IMVI melanoma): 18.1 µM
- TGI (LOX IMVI melanoma): 34.8 µM
- GI50 (M14 melanoma): 18.5 µM
- TGI (M14 melanoma): 36.8 µM
- GI50 (MALME-3M melanoma): 16.1 µM
- TGI (MALME-3M melanoma): 29.9 µM
- GI50 (MCF7 breast): 17.3 µM
- TGI (MCF7 breast): 33.1 µM
- GI50 (MDA-MB-231 breast): 18.3 µM
- TGI (MDA-MB-231 breast): 34.2 µM
- GI50 (MDA-MB-435): 24.2 µM
- TGI (MDA-MB-435): 61.5 µM
- GI50 (MDA-MB-468 breast): 26 µM
- TGI (MDA-MB-468 breast): 69.3 µM
- GI50 (MOLT-4 leukemia): 35.2 µM
- TGI (MOLT-4 leukemia): > 100 µM
- GI50 (NCI-H226 lung): 21.1 µM
